# Experimental data published in US10167283B2, “β-lactamase inhibitors and uses thereof” (priority 2015, dated 2019).
# Structures can show the parent of a compound that is named as a salt. Where two headings read alike, the source gives them in different places.
# Columns and labels:
# AmpC = molecular target: T1, AmpC (UniProt P05364); experiment: β-lactamase inhibition, Nitrocefin hydrolysis; assay type: biochemical; settings: read-out: IC50 Type C AmpC; Experiment 1; enzyme 0.4 nM, Nitrocefin 0.1 mM
# T1 construct: The concentration of purchased β-lactamases mother liquor was 1 mg/mL, and the mother liquor was dissolved in 50% glycerol
# Protocol: (§1) Nitrocefin, a kind of cephalosporin antibiotics, is sensitive to most of β-lactamases, and changes in color after being hydrolyzed. The hydrolysis rate of Nitrocefin was measured by real-time recording corresponding absorbance of reaction system. β-Lactamase inhibitors could inhibit hydrolysis of the enzymes to Nitrocefin, and reduce hydrolysis rate. By measuring reaction rates in the same reaction system under different inhibitor concentrations, the IC50 (half maximal inhibitory concentration) values of inhibitors were calculated.
# (§2) Nitrocefin was dissolved in DMSO to form a solution with concentration of 2 mM, which was sub-packaged and stored at −20° C. The concentration of purchased β-lactamases mother liquor was 1 mg/mL, and the mother liquor was dissolved in 50% glycerol. A part of mother liquor was taken and diluted by 1000 times in reaction solution, sub-packaged and stored at ˜20° C.
# (§3) The compounds to be tested were dissolved in DMSO to form a mother liquor with concentration of 10 mM. If not used that day, the mother liquor was stored at −20° C. Its test final concentrations were: 100 μM, 25 μM, 6.25 μM, 1.563 μM, 390.6 nM, 97.66 nM, 24.41 nM, 6.10 nM, 1.53 nM, 0.381 nM, 0.095 nM.
# KPC-2 = molecular target: T2, KPC-2 (Klebsiella pneumoniae, UniProt Q9F663); experiment: β-lactamase inhibition, Nitrocefin hydrolysis; assay type: biochemical
# T2 construct: purchased
# Protocol: as §1, §2, §3
# TEM-1 = molecular target: T3, TEM-1 (Escherichia coli, UniProt P62593); experiment: β-lactamase inhibition, Nitrocefin hydrolysis; assay type: biochemical; settings: Experiment 1; enzyme 0.25 nM, Nitrocefin 0.1 mM; read-out: IC50 ESBLs type TEM-1
# T3 construct: purchased
# Protocol: as §1, §2, §3
# [1] = test system: Escherichia coli BAA-196 (TEM-10); experiment: In vitro antibacterial activity, agar dilution MIC; assay type: cell-based
# From the text: (§4) Experimental strains: all experimental standard bacterial strains for enzyme production were purchased from ATCC, and the clinically separated CRE strain was purchased from Southwest Hospital of the Third Military Medical University.
# (§5) Experimental Method: Agar dilution method, referring to M100-S23: Performance Standards for Antimicrobial Susceptibility Testing: Twenty-Third Informational Supplement (Clinical And Laboratory Standards Institute, 2013). Minimal inhibitory concentration (MIC, μg/mL) was calculated.
# [2] = test system: Escherichia coli BAA-2452 (NDM-1); experiment: In vitro antibacterial activity, agar dilution MIC; assay type: cell-based
# From the text: as §4, §5
# [3] = test system: Escherichia coli BAA-2523 (OXA-48); experiment: In vitro antibacterial activity, agar dilution MIC; assay type: cell-based
# From the text: as §4, §5
# [4] = test system: Klebsiella pneumoniae BAA-1900 (KPC); experiment: In vitro antibacterial activity, agar dilution MIC; assay type: cell-based
# From the text: as §4, §5
# [5] = test system: Klebsiella pneumoniae BAA-2146 (NDM-1); experiment: In vitro antibacterial activity, agar dilution MIC; assay type: cell-based
# From the text: as §4, §5
# [6] = test system: Enterobacter cloacae 7513ecl-314 (AmpC); experiment: In vitro antibacterial activity on clinically separated CRE strain, agar dilution MIC; assay type: cell-based; settings: first Table 4, 7513ecl-314 Enterobacter cloacae
# From the text: as §4, §5
# [7] = test system: Klebsiella pneumoniae 7463kpn-610 (ESBLs); experiment: as above; assay type: cell-based; settings: first Table 4, 7463kpn-610 Klebsiella pneumoniae
# From the text: as §4, §5
# [8] = test system: Klebsiella pneumoniae 7484kpn-631 (IMP, ESBLs); experiment: as above; assay type: cell-based; settings: first Table 4, 7484kpn-631 Klebsiella pneumoniae
# From the text: as §4, §5
# [9] = test system: Enterobacter cloacae BAA-2341 (KPC); experiment: In vitro antibacterial activity, agar dilution MIC; assay type: cell-based; settings: Enterobacter cloacae, BAA2341
# From the text: as §4, §5
# [10] = test system: Enterobacter hormaechei BAA-2082 (KPC); experiment: In vitro antibacterial activity, agar dilution MIC; assay type: cell-based; settings: Enterobacter hormaechei, BAA2082
# From the text: as §4, §5
# [11] = test system: Klebsiella oxytoca ATCC-51983 (SHV-5); experiment: In vitro antibacterial activity, agar dilution MIC; assay type: cell-based; settings: Klebsiella oxytoca, ATCC51983
# From the text: as §4, §5
# [12] = test system: Klebsiella pneumoniae BAA-2524 (OXA-48); experiment: In vitro antibacterial activity, agar dilution MIC; assay type: cell-based; settings: Klebsiella pneumoniae, BAA2524
# From the text: as §4, §5
# [13] = Pharmacokinetics in SD rats (iv); assay type: in vivo, SD rat; settings: male, plasma; for half-life / clearance: SD, rat, iv, 1 mg/kg; for clearance: read-out: Cl—obs (converted); for Vd / AUC(0-t): SD rat, iv 1 mg/kg; for Vd: apparent volume of distribution, read-out: Vss—obs; for AUC(0-t): area under the curve 0→t
# Protocol: Experimental Example 1: Pharmacokinetics Experiments of the Compound of the Present Invention in Rats Test animals: 3 male SD rats, bodyweight 200-250 g for each animal. Test samples were administrated via intravenous push (iv), dosage of administration was 1 mg/kg, volume of administration was 2 mL/kg. Collecting time points: iv: after administration 0.083 […]. At each time point, about 100 μL of whole blood was sampled via caudal vein, added to K2EDTA anti-coagulative tube, centrifuged in a refrigerated centrifuge under 8000 rpm for 6 min to separate plasma, and the plasma was stored in -80° C. refrigerator. Plasma (20 μL) was taken and placed in a 96-well deep-well plate, and internal standard solution (300 μL) was added, subjected to vortex for 5 min, then centrifuged under 12000 rpm for 5 min, and then supernatant (200 μL) was taken and subjected to vortex for 3 min; to be analyzed by LC-MS/MS. Plasma (30 μL) was taken and placed in 1.5 mL EP tube, and internal standard solution (300 μL) was added, subjected to vortex for 5 min, then centrifuged under 12000 rpm for 5 min, and then supernatant (200 μL) was taken and subjected to vortex for 3 min; to be analyzed by LC-MS/MS. Plasma (30 μL) was taken and placed in a 96-well deep-well plate, and internal standard solution (200 μL) was added, subjected to vortex for 5 min, then centrifuged under 4000 rpm for 20 min, and then supernatant (100 μL) was taken and water (100 μL) was added, and subjected to vortex homogeneously; to be analyzed by LC-MS/MS.
# OXA-10 = molecular target: T4, OXA-10 (Pseudomonas aeruginosa, UniProt P14489); experiment: β-lactamase inhibition, Nitrocefin hydrolysis; assay type: biochemical; settings: Experiment 3; enzyme 10 nM, Nitrocefin 0.1 mM; read-out: IC50 Type D OXA-10
# T4 construct: purchased
# Protocol: as §1, §2, §3
# [14] = Experiment 1, Nitrocefin 0.1 mM, read-out: IC50 Type A KPC-2
# [15] = BAA196, first Table 4, BAA-196 Escherichia coli, TEM-10, read-out: MIC
# [16] = BAA2452, first Table 4, BAA-2452 Escherichia coli, NDM-1, read-out: MIC
# [17] = BAA2523, first Table 4, BAA-2523 Escherichia coli, OXA-48, read-out: MIC
# [18] = BAA1900, first Table 4, BAA-1900 Klebsiella pneumoniae, KPC, read-out: MIC
# [19] = BAA2146, first Table 4, BAA-2146 Klebsiella pneumoniae, NDM-1, read-out: MIC
# T2 sequence (Q9F663 25-293, looked up, species assumed): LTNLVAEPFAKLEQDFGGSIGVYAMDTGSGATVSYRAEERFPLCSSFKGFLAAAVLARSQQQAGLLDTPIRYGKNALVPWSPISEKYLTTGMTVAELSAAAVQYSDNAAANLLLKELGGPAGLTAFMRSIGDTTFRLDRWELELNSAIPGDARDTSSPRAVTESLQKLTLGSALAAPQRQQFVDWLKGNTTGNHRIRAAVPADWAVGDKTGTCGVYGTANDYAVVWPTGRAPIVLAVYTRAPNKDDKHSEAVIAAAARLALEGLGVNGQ
# T3 sequence (P62593 24-286 limits assumed): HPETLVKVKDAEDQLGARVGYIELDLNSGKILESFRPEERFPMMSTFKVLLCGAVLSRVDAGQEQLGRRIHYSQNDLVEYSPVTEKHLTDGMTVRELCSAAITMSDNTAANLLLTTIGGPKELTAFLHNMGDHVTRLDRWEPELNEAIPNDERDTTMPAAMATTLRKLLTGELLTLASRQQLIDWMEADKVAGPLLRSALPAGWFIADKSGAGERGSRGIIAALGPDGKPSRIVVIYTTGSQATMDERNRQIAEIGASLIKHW
# T4 sequence (P14489 20-266, species assumed): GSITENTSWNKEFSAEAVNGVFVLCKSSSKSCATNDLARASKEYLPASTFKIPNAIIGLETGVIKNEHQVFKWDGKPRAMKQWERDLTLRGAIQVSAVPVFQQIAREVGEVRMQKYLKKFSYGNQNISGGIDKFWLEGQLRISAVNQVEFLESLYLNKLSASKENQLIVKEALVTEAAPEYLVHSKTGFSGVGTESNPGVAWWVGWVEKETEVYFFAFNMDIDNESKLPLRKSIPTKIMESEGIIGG
SMILES,IC50 (TEM-1) [nM],MIC [10] [µg/mL],MIC ([1]; BAA196) [µg/mL],MIC ([2]; BAA2452) [µg/mL],MIC ([3]; BAA2523) [µg/mL],MIC ([4]; BAA1900) [µg/mL],MIC [12] [µg/mL],half-life [13] [h],clearance [13] [mL/min/kg],Vd [13] [L/kg],AUC(0-t) [13] [ng·h/mL],further results
"O=C(NC1C2CCC1CNC2)[C@@H]1CC[C@@H]2CN1C(=O)N2OS(=O)(=O)O (stereo partly drawn) [Compound 5, (2S,5R)-2-((3-azabicyclo[3.2.1]octan-8-yl)carbamoyl)-7-oxo-1,6-diazabicyclo[3.2.1]octan-6-yl hydrogen sulfate]",66.5,,,,,,,,,,,IC50 (AmpC): 84.1 nM; IC50 (KPC-2; [14]): 27.4 nM
"CN1CC2(CC(NC(=O)[C@H]3CC[C@@H]4CN3C(=O)N4OS(=O)(=O)O)C2)C1 [Compound 6-2, (2R,5R)-2-((2-methyl-2-azaspiro[3,3]heptan-6-yl)carbamoyl)-7-oxo-1,6-diazabicyclo[3,2,1]octan-6-yl hydrogen sulfate]",,,,,,,,,,,,"MIC [1, 15]: 8 µg/mL; MIC [2, 16]: 8 µg/mL; MIC [3, 17]: 8 µg/mL; MIC [4, 18]: 8 µg/mL; MIC [5, 19]: 16 µg/mL; MIC [6]: 4 µg/mL; MIC [7]: 8 µg/mL; MIC [8]: 4 µg/mL"
"O=C(NC1CC2(C1)CN(CC1CC1)C2)[C@@H]1CC[C@@H]2CN1C(=O)N2OS(=O)(=O)O [Compound 14, sodium (2S,5R)-2-((2-(cyclopropylmethyl)-2-azaspiro[3.3]heptan-6-yl)carbamoyl)-7-oxo-1,6-diazabicyclo[3.2.1]octan-6-yl sulfate]",,8,8,2,2,4,4,,,,,MIC [9]: 8 µg/mL; MIC [11]: 8 µg/mL; MIC ([5]; BAA2146): 8 µg/mL
"CN1CC2(CC(NC(=O)[C@@H]3CC[C@@H]4CN3C(=O)N4OS(=O)(=O)O)C2)C1 [Compound 6 sodium salt, sodium (2S,5R)-2-((2-methyl-2-azaspiro[3.3]heptan-6-yl)carbamoyl)-7-oxo-1,6-diazabicyclo[3.2.1]octan-6-yl sulfate]",,,,,,,,0.25,9.08,0.219,1840,IC50 (OXA-10): 21700 nM
"CCN1CC2(CC(NC(=O)[C@@H]3CC[C@@H]4CN3C(=O)N4OS(=O)(=O)O)C2)C1 [Comp. 7 sodium salt, sodium (2S,5R)-2-((2-ethyl-2-azaspiro[3.3]heptan-6-yl)carbamoyl)-7-oxo-1,6-diazabicyclo[3.2.1]octan-6-yl sulfate]",,8,8,4,4,8,8,,,,,MIC [9]: 8 µg/mL
"O=C(NC1CC2(CCNCC2)C1)[C@@H]1CC[C@@H]2CN1C(=O)N2OS(=O)(=O)O [Compound 1, (2S,5R)-2-(7-azaspiro[3.5]nonan-2-ylcarbamoyl)-7-oxo-1,6-diazabicyclo[3.2.1]octan-6-yl hydrogen sulfate]",28.2,,,,,,,1.01,7.77,0.294,2330,IC50 (AmpC): 22.9 nM; IC50 (KPC-2; [14]): 81.7 nM
"O=C(NC1CC2CCC(C1)N2)[C@@H]1CC[C@@H]2CN1C(=O)N2OS(=O)(=O)O (stereo partly drawn) [Compound 4, (2S,5R)-2-((8-azabicyclo[3.2.1]octane-3-yl)carbamoyl)-7-oxo-1,6-diazabicyclo[3.2.1]octan-6-yl hydrogen sulfate]",20.5,,,,,,,2.04,12.1,0.348,1390,IC50 (KPC-2): 23.1 nM
"O=C(NC1CC2(CNC2)C1)[C@H]1CC[C@@H]2CN1C(=O)N2OS(=O)(=O)O [Compound 2-2, (2R,5R)-2-((2-azaspiro[3.3]heptan-6-yl)carbamoyl)-7-oxo-1,6-diazabicyclo[3.2.1]octan-6-yl hydrogen sulfate]",,,,,,,,,,,,"MIC [1, 15]: 4 µg/mL; MIC [2, 16]: 4 µg/mL; MIC [3, 17]: 4 µg/mL; MIC [4, 18]: 4 µg/mL; MIC [5, 19]: 2 µg/mL; MIC [6]: 2 µg/mL; MIC [7]: 2 µg/mL; MIC [8]: 2 µg/mL"
"O=C(NC1CC2(C1)CN(C1CC1)C2)[C@@H]1CC[C@@H]2CN1C(=O)N2OS(=O)(=O)O [Compound 13, (2S,5R)-2-(2-cyclopropyl-2-azaspiro[3.3]heptan-6-ylcarbamoyl)-7-oxo-1,6-diazabicyclo[3.2.1]octan-6-yl hydrogen sulfate]",,16,16,4,4,8,4,,,,,MIC [11]: 8 µg/mL
